In patent publication US3997403A, “Antibiotic G-418 and the production thereof” (Schering Corporation, priority 1975, dated 1976):
≈ marks a conversion by molar mass, not a printed value.

How the values were obtained:
[1] = system: Bacillus subtilis A.T.C.C. 6633; test: standard disc plate microbiological assay; type: cell-based; conditions: one microgram of the standard; Difco Antibiotic Medium No. 5
Excerpt: The assay is a standard disc plate assay using Difco Antibiotic Medium No. 5 and Bacillus subtilis A.T.C.C. 6633 as the test organism. The physical conditions of the test are substantially those described for neomycin (Grove and Randall), Assay Methods of Antibiotics published by Medical Encyclopedia Incorporated (1955). The assay is run against a standard preparation of Antibiotic G-418 having a defined potency of 1000 mcg/mg. […] The standard antibiotic sulfate salt assays about 750 mcg/mg. against the standard antibiotic base.

Streptococcus sp. 16245 = test: In Vitro Antibacterial Activity (Table V); type: cell-based; conditions: Mueller-Hinton Broth pH 7.2 - 7.5
Excerpt: (§1) In Table IV and Table V are set forth the in vitro antibacterial spectrum of Antibiotic G-418 against a variety of gram-positive and gram-negative bacteria using standard art recognized methods.
(§2) *Mueller -- Hinton Broth pH 7.2 - 7.5

Proteus morganii 8019 = test: In Vitro Antibacterial Activity (Table V); type: cell-based; conditions: Morganella morganii, Mueller-Hinton Broth pH 7.2 - 7.5
Excerpt: as §1, §2

Staphylococcus aureus 23 = test: In Vitro Antibacterial Activity (Table V); type: cell-based; conditions: S. aureus 23, Mueller-Hinton Broth pH 7.2 - 7.5
Excerpt: as §1, §2

Escherichia coli 777 = test: In Vitro Antibacterial Activity (Table V); type: cell-based; conditions: E. coli 777, Mueller-Hinton Broth pH 7.2 - 7.5
Excerpt: as §1, §2

[2] = system: Staphylococcus aureus Sm 1; test: In Vitro Antibacterial Activity (Table V); type: cell-based; conditions: SM1, S. aureus Sm 1, Mueller-Hinton Broth pH 7.2 - 7.5
Excerpt: as §1, §2

Streptococcus sp. 6589 = test: In Vitro Antibacterial Activity (Table V); type: cell-based; conditions: Mueller-Hinton Broth pH 7.2 - 7.5
Excerpt: as §1, §2

Staphylococcus aureus 6 = test: In Vitro Antibacterial Activity (Table V); type: cell-based; conditions: S. aureus 6, Mueller-Hinton Broth pH 7.2 - 7.5
Excerpt: as §1, §2

Proteus rettgeri 9250 = test: In Vitro Antibacterial Activity (Table V); type: cell-based; conditions: Providencia rettgeri, Mueller-Hinton Broth pH 7.2 - 7.5
Excerpt: as §1, §2

Proteus mirabilis 12453 = test: In Vitro Antibacterial Activity (Table V); type: cell-based; conditions: Mueller-Hinton Broth pH 7.2 - 7.5
Excerpt: as §1, §2

Escherichia coli 887 = test: In Vitro Antibacterial Activity (Table V); type: cell-based; conditions: E. coli 887, Mueller-Hinton Broth pH 7.2 - 7.5
Excerpt: as §1, §2

Streptococcus sp. 27 = test: In Vitro Antibacterial Activity (Table V); type: cell-based; conditions: Mueller-Hinton Broth pH 7.2 - 7.5
Excerpt: as §1, §2

[3] = system: Pseudomonas aeruginosa 83; test: In Vitro Antibacterial Activity (Table V); type: cell-based; conditions: P. aeruginosa 83, Mueller-Hinton Broth pH 7.2 - 7.5
Excerpt: as §1, §2

Streptococcus sp. 3045 = test: In Vitro Antibacterial Activity (Table V); type: cell-based; conditions: Mueller-Hinton Broth pH 7.2 - 7.5
Excerpt: as §1, §2

[4] = system: Staphylococcus aureus 1257; test: In Vitro Antibacterial Activity (Table V); type: cell-based; conditions: S. aureus 1257, Mueller-Hinton Broth pH 7.2 - 7.5
Excerpt: as §1, §2

Staphylococcus aureus 32 = test: In Vitro Antibacterial Activity (Table V); type: cell-based; conditions: S. aureus 32, Mueller-Hinton Broth pH 7.2 - 7.5
Excerpt: as §1, §2

Streptococcus sp. 30 = test: In Vitro Antibacterial Activity (Table V); type: cell-based; conditions: Mueller-Hinton Broth pH 7.2 - 7.5
Excerpt: as §1, §2

Staphylococcus aureus 26 = test: In Vitro Antibacterial Activity (Table V); type: cell-based; conditions: S. aureus 26, Mueller-Hinton Broth pH 7.2 - 7.5
Excerpt: as §1, §2

Staphylococcus aureus 12 = test: In Vitro Antibacterial Activity (Table V); type: cell-based; conditions: S. aureus 12, Mueller-Hinton Broth pH 7.2 - 7.5
Excerpt: as §1, §2

[5] = system: Pseudomonas aeruginosa 20; test: In Vitro Antibacterial Activity (Table V); type: cell-based; conditions: P. aeruginosa 20, Mueller-Hinton Broth pH 7.2 - 7.5
Excerpt: as §1, §2

[6] = system: Pseudomonas aeruginosa 1262; test: In Vitro Antibacterial Activity (Table V); type: cell-based; conditions: P. aeruginosa 1262, Mueller-Hinton Broth pH 7.2 - 7.5
Excerpt: as §1, §2

[7] = system: Pseudomonas aeruginosa 1236; test: In Vitro Antibacterial Activity (Table V); type: cell-based; conditions: P. aeruginosa 1236, Mueller-Hinton Broth pH 7.2 - 7.5
Excerpt: as §1, §2

Bacillus subtilis 6633 = test: In Vitro Antibacterial Activity (Table V); type: cell-based; conditions: B. subtilis 6633, Mueller-Hinton Broth pH 7.2 - 7.5
Excerpt: as §1, §2

Acute Toxicity = test: Acute Toxicity; set-up: species or system Carworth Farms CF-1 mice; conditions: mouse, in vivo, iv, I.V.
Eschericia coli Sc. = test: In vivo protective activity in infected mice; set-up: species or system Carworth Farms CF-1 mice; conditions: S.C., dosed 1 hour after i.p. lethal infection, survival at 48 hours
Experimental: (§3) In Table VI is set forth in vivo antibacterial data obtained with Antibiotic G-418. The host animals used to obtain the data were Carworth Farms CF-1 mice weighing about 18-20 g. In vivo protection (PD50) is determined by injecting the mice (in groups of seven) intraperitoneally with a lethal dose of pathogenic bacteria. The mice are dosed with Antibiotic G-418 1 hour later. The non-protected controls die in 18-24 hours whereas the survivors are alive 48 hours after infection when the test is terminated. The data is analyzed by standard probit procedures to determine PD50 values with 95% confidence limits.

[8] = system: Pseudomonas aeruginosa No. 1; test: In vivo protective activity in infected mice; set-up: species or system Carworth Farms CF-1 mice; conditions: S.C., dosed 1 hour after i.p. lethal infection, survival at 48 hours
Experimental: as §3

[9] = system: Staphylococcus aureus St. M No. 1; test: In vivo protective activity in infected mice; set-up: species or system Carworth Farms CF-1 mice; conditions: S.C., dosed 1 hour after i.p. lethal infection, survival at 48 hours
Experimental: as §3

[10] = system: Staphylococcus aureus Gray; test: In vivo protective activity in infected mice; set-up: species or system Carworth Farms CF-1 mice; conditions: dosed 1 hour after i.p. lethal infection, survival at 48 hours
Experimental: as §3

CN[C@@H]1[C@@H](O)[C@@H](O[C@@H]2[C@@H](O)[C@H](O[C@H]3O[C@H]([C@@H](C)O)[C@@H](O)[C@H](O)[C@H]3N)[C@@H](N)C[C@H]2N)OC[C@]1(C)O [Antibiotic G-418]
zone of inhibition [1]: 16.5 ± 1.5 mm
MIC (Streptococcus sp. 16245): 7.5 µg/mL (≈ 15.1 µM)
MIC (Proteus morganii 8019): 0.8 µg/mL (≈ 1.61 µM)
MIC (Staphylococcus aureus 23): 0.3 µg/mL (≈ 0.604 µM)
MIC (Escherichia coli 777): 3 µg/mL (≈ 6.04 µM)
MIC [2]: 0.3 µg/mL (≈ 0.604 µM)
MIC (Streptococcus sp. 6589): 7.5 µg/mL (≈ 15.1 µM)
MIC (Staphylococcus aureus 6): 0.3 µg/mL (≈ 0.604 µM)
MIC (Proteus rettgeri 9250): 0.3 µg/mL (≈ 0.604 µM)
MIC (Proteus mirabilis 12453): 7.5 µg/mL (≈ 15.1 µM)
MIC (Escherichia coli 887): 3 µg/mL (≈ 6.04 µM)
MIC (Streptococcus sp. 27): 7.5 µg/mL (≈ 15.1 µM)
MIC [3]: 7.5 µg/mL (≈ 15.1 µM)
MIC (Streptococcus sp. 3045): 7.5 µg/mL (≈ 15.1 µM)
MIC [4]: 0.3 µg/mL (≈ 0.604 µM)
MIC (Staphylococcus aureus 32): 7.5 µg/mL (≈ 15.1 µM)
MIC (Streptococcus sp. 30): 7.5 µg/mL (≈ 15.1 µM)
MIC (Staphylococcus aureus 26): 3 µg/mL (≈ 6.04 µM)
MIC (Staphylococcus aureus 12): 3 µg/mL (≈ 6.04 µM)
MIC [5]: 3 µg/mL (≈ 6.04 µM)
MIC [6]: 17.5 µg/mL (≈ 35.2 µM)
MIC [7]: 17.5 µg/mL (≈ 35.2 µM)
MIC (Bacillus subtilis 6633): 3 µg/mL (≈ 6.04 µM)
LD50 (Acute Toxicity): 140 mg/kg
PD50 (Eschericia coli Sc.): 1.5 mg/kg
PD50 [8]: 5.0 mg/kg
PD50 [9]: 3.0 mg/kg
PD50 ([10]; Oral): 40 mg/kg
PD50 ([10]; S.C.): 2.5 mg/kg
